Assays:
Experiment in all cases: ELISA, CRP binding to immobilised PC-KLH
Conditions in all cases: PC presented as immobilised KLH conjugate, not free ligand; 2 mM CaCl2, TBS pH 7.4; calcium-dependent
mouse CRP = target: T1, mouse CRP (Mus musculus, UniProt P14847)
T1 construct: signal peptide replaced by alpha-factor signal, N-terminal 6xHis tag kept; secreted from Pichia pastoris GS115; homopentamer
T1 sequence (P14847 20-225): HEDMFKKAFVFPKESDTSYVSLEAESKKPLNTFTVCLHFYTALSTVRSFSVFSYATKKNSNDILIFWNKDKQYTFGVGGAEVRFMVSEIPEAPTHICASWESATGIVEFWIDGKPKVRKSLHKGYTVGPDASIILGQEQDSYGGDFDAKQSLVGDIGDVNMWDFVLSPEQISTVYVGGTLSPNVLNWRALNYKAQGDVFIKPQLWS

rat CRP = target: T2, rat CRP (Rattus norvegicus, UniProt P48199)
T2 construct: signal peptide replaced by alpha-factor signal, N-terminal 6xHis tag kept; secreted from Pichia pastoris GS115; homopentamer
T2 sequence (P48199 20-230): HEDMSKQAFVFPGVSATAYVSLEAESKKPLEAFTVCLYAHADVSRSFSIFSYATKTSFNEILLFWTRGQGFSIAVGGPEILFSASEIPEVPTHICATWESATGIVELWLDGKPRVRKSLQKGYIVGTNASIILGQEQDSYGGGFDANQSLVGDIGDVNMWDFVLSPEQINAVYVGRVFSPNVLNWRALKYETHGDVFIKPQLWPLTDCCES

human CRP = target: T3, human CRP (Homo sapiens, UniProt P02741)
T3 sequence (P02741 19-224): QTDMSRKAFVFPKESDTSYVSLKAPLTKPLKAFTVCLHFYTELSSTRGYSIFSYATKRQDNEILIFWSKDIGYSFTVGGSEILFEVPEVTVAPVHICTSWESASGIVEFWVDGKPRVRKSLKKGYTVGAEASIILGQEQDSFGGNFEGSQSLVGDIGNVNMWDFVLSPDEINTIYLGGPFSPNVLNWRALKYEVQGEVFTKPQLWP

SMILES: C[N+](C)(C)CCOP(=O)([O-])O [phosphorylcholine]
- ELISA, CRP binding to immobilised PC-KLH (mouse CRP): mouse, rat, and human CRP also showed a comparable capacity to bind PC
- ELISA, CRP binding to immobilised PC-KLH (rat CRP): mouse, rat, and human CRP also showed a comparable capacity to bind PC
- ELISA, CRP binding to immobilised PC-KLH (human CRP): mouse, rat, and human CRP also showed a comparable capacity to bind PC

Reference: publication PMC8956723, “Secretory quality control constrains functional selection-associated protein structure innovation” (Communications Biology, 2022)
